In this assay the target is T1, truncated CsrD, EAL domain only (E. amylovora Ea1189) (Erwinia amylovora, UniProt A0ABX7MI01).
T1 sequence (A0ABX7MI01 403-633): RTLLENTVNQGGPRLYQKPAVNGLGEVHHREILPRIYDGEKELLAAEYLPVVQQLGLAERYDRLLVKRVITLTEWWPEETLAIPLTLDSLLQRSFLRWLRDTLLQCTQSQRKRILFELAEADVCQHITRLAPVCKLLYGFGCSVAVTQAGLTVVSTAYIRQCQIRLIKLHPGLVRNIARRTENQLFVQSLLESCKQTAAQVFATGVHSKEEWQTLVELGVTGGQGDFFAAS
In words: streptavidin pull-down with anti-His immunoblot. The class given is binding. Conditions: labelled compound (biotinylated c-di-GMP, 100 µM); 1.7 µM protein. For orientation: Immunoblotting shows a protein as a band on a membrane.

Regarding `Nc1nc2c(ncn2[C@@H]2O[C@@H]3COP(=O)(O)O[C@H]4[C@@H](O)[C@H](n5cnc6c(=O)[nH]c(N)nc65)O[C@@H]4COP(=O)(O)O[C@H]3[C@H]2O)c(=O)[nH]1` [c-di-GMP], the “streptavidin pull-down with anti-His immunoblot” value is “truncated version of CsrD that consisted of only the WT EAL domain exhibited binding”.

Source of the values: publication PMC9276943 (Molecular Plant Pathology, 2022).
